Measured values published in ChEMBL document CHEMBL5523764, “Discovery of NO Donor-Aurovertin Hybrids as Dual Ferroptosis and Apoptosis Inducers for Treating Triple Negative Breast Cancer” (J Med Chem, 2024).

Columns and labels:
[1] = Toxicity in ip dosed mouse assessed as appearance of loose gray stool; format: organism-based; settings: in vivo
[2] = Cytotoxicity against human MCF-10A cells assessed as reduction in cell viability incubated for 72 hrs by MTT assay; format: toxicity, cell-based
[3] = Toxicity in mouse assessed as animal death at >6 mg/kg, ip; format: organism-based; settings: in vivo
[4] = Selectivity index, ratio of IC50 for cytotoxicity against human MCF-10A cells to IC50 for antiproliferative activity against human MDA-MB-231 cells; format: toxicity, cell-based; settings: MCF-10A cells versus MDA-MB-231 cells, read-out: Ratio IC50
[5] = Toxicity in ip dosed mouse assessed as body weight loss; format: organism-based; settings: in vivo
[6] = tested on: MDA-MB-231; experiment: Antiproliferative activity against human MDA-MB-231 cells assessed as reduction in cell viability incubated for 72 hrs by MTT assay; format: functional, cell-based; settings: MDA-MB-231, 72 h
[7] = Toxicity in ip dosed mouse assessed as appearance of messy furs; format: organism-based; settings: in vivo
[8] = Toxicity in ip dosed mouse assessed as lethal dose; format: organism-based; settings: in vivo
[9] = tested on: 4T1; experiment: Antiproliferative activity against mouse 4T1 cells assessed as reduction in cell viability incubated for 72 hrs by MTT assay; format: functional, cell-based; settings: 4T1, 72 h

CC[C@H]1O[C@@]2(C)[C@H](OC(C)=O)[C@@]1(C)O[C@@H](/C=C/C=C/C=C/c1oc(=O)cc(OC)c1C)[C@@H]2O
Activity [1]: Toxic | IC50 at 72 h [2]: > 50 µM | Activity [3]: Toxic | selectivity ratio [4]: > 23 | Activity [5]: Toxic | IC50 [6]: 2170 nM | Activity [7]: Toxic | LD50 [8]: 12 mg/kg | IC50 [9]: 3.34 µM
